Measurements taken from ChEMBL document CHEMBL2380240, “Discovery, synthesis, selectivity modulation and DMPK characterization of 5-azaspiro[2.4]heptanes as potent orexin receptor antagonists” (Bioorg Med Chem Lett, 2013).

Experiments:
[1] = target: T1, Orexin/Hypocretin receptor type 1 (Homo sapiens) (UniProt O43613); test: Antagonist activity at human recombinant OX1 receptor expressed in CHO cells assessed as OXA-stimulated intracellular calcium mobilization by FLIPR assay; type: functional, cell-based
T1 sequence (whole entry): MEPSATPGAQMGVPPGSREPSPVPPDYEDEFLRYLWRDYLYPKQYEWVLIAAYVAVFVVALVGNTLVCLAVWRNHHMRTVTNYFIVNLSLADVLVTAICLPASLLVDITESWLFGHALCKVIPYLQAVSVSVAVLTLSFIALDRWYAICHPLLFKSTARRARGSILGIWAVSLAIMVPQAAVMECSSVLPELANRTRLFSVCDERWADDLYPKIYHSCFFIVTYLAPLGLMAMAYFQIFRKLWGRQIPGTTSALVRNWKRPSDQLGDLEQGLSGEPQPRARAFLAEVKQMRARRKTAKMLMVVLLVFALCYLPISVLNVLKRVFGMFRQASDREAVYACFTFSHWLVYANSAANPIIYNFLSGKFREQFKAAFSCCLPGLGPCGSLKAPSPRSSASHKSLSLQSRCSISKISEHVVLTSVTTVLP

[2] = target: T2, Orexin receptor type 2 (Homo sapiens) (UniProt O43614); test: Antagonist activity at human recombinant OX2 receptor expressed in HEK293 cells assessed as OXB-stimulated intracellular calcium mobilization by FLIPR assay; type: functional, cell-based
T2 sequence (whole entry): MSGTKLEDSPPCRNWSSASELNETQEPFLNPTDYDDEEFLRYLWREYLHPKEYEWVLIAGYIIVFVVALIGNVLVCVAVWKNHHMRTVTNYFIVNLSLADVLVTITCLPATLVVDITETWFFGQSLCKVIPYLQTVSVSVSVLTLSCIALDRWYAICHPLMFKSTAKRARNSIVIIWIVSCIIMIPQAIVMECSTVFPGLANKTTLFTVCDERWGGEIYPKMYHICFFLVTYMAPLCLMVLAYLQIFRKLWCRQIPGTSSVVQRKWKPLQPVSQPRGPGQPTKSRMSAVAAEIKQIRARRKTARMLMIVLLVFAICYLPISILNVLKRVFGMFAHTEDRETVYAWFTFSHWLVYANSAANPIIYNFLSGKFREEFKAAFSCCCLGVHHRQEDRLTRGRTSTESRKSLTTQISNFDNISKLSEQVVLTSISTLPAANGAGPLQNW

CYP3A4 [3] = target: T3, CYP3A4 (Homo sapiens, UniProt P08684); test: Inhibition of human recombinant CYP3A4 using BFC as substrate at 3 uM by fluorimetric assay; type: ADME; conditions: recombinant CYP3A4, probe BFC
CYP1A2 [4] = target: T4, CYP1A2 (Homo sapiens, UniProt P05177); test: Inhibition of human recombinant CYP1A2 at 3 uM by fluorimetric assay; type: ADME
T4 sequence (P05177 whole entry): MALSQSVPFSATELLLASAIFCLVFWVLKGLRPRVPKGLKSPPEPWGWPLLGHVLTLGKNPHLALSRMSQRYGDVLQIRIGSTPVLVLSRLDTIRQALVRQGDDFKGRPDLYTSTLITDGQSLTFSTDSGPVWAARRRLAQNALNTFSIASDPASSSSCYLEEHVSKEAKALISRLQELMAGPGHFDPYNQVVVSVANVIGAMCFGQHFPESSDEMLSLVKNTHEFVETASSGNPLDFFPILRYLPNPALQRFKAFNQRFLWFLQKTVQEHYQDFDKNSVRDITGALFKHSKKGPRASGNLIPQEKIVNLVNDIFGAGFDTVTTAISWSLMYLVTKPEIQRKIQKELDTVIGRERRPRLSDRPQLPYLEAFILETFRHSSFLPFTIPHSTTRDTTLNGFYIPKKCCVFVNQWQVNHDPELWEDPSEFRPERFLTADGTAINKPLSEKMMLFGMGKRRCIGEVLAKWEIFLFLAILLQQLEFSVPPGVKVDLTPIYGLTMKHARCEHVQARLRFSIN

CYP3A4 [5] = target: T3, CYP3A4; test: Inhibition of human recombinant CYP3A4 using DBF as substrate at 3 uM by fluorimetric assay; type: ADME; conditions: recombinant CYP3A4, probe DBF
CYP2C9 [6] = target: T5, CYP2C9 (Homo sapiens, UniProt P11712); test: Inhibition of human recombinant CYP2C9 at 3 uM by fluorimetric assay; type: ADME
CYP2C19 [7] = target: T6, CYP2C19 (Homo sapiens, UniProt P33261); test: Inhibition of human recombinant CYP2C19 at 3 uM by fluorimetric assay; type: ADME
CYP2D6 [8] = target: T7, CYP2D6 (Homo sapiens, UniProt P10635); test: Inhibition of human recombinant CYP2D6 at 3 uM by fluorimetric assay; type: ADME
CYP2C19 [9] = target: T6, CYP2C19; test: Inhibition of human recombinant CYP2C19 at 1 uM by fluorimetric assay; type: ADME
CYP3A4 [10] = target: T3, CYP3A4; test: Inhibition of human recombinant CYP3A4 using DBF as substrate at 1 uM by fluorimetric assay; type: ADME; conditions: recombinant CYP3A4, probe DBF
CYP2C9 [11] = target: T5, CYP2C9; test: Inhibition of human recombinant CYP2C9 at 1 uM by fluorimetric assay; type: ADME
CYP1A2 [12] = target: T4, CYP1A2; test: Inhibition of human recombinant CYP1A2 at 1 uM by fluorimetric assay; type: ADME
CYP3A4 [13] = target: T3, CYP3A4; test: Inhibition of human recombinant CYP3A4 using BFC as substrate at 1 uM by fluorimetric assay; type: ADME; conditions: recombinant CYP3A4, probe BFC
CYP2D6 [14] = target: T7, CYP2D6; test: Inhibition of human recombinant CYP2D6 at 1 uM by fluorimetric assay; type: ADME
[15] = Volume of distribution at steady state in rat; type: ADME, organism-based; conditions: in vivo, read-out: Vdss
[16] = Plasma clearance in rat at 1 mg/kg, iv; type: ADME, organism-based; design: dose 1 mg/kg, route intravenous
[17] = Ratio of drug uptake from rat brain to plasma at 1 mg/kg, iv after 1 hr; type: ADME, organism-based; design: dose 1 mg/kg, route intravenous; conditions: read-out: BPR

T5 sequence (P11712 whole entry): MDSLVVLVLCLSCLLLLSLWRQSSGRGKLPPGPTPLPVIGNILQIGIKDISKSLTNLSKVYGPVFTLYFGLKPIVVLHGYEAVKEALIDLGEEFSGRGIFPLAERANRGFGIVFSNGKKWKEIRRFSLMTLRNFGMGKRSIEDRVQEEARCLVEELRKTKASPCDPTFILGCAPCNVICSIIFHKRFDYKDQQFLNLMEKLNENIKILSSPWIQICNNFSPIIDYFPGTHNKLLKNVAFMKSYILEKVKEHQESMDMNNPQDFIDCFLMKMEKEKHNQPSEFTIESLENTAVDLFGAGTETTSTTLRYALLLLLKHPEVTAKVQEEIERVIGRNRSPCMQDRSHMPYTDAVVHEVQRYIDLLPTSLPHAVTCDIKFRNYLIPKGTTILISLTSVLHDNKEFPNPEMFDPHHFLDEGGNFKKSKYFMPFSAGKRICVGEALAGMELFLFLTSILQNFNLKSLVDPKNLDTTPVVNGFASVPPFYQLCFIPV
T6 sequence (P33261 whole entry): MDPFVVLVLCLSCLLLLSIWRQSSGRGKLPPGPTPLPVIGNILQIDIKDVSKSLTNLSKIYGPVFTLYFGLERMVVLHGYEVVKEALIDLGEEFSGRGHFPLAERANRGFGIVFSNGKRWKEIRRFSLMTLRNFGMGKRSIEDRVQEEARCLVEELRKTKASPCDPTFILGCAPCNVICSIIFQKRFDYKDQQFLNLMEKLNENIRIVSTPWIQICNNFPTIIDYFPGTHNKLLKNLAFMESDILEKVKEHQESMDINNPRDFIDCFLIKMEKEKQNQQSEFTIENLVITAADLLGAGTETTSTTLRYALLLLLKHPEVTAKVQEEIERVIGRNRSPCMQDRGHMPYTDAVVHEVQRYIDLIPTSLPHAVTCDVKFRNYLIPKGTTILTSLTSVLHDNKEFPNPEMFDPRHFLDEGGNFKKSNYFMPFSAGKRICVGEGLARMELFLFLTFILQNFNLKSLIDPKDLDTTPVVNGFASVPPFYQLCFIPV
T7 sequence (P10635 whole entry): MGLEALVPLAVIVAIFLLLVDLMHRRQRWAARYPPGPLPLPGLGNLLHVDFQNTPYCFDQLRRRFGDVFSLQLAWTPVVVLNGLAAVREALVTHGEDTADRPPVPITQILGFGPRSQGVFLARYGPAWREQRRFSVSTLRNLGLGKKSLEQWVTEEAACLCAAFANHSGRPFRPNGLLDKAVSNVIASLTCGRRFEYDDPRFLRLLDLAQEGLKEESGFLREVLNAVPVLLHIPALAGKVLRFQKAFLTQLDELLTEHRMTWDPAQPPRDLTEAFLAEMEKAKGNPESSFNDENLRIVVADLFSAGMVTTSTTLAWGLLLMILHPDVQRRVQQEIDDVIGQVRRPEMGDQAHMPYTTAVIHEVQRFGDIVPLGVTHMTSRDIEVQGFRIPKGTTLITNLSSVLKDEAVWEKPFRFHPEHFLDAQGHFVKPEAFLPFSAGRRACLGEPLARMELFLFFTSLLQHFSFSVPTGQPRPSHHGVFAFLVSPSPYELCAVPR
T3 sequence (P08684 whole entry): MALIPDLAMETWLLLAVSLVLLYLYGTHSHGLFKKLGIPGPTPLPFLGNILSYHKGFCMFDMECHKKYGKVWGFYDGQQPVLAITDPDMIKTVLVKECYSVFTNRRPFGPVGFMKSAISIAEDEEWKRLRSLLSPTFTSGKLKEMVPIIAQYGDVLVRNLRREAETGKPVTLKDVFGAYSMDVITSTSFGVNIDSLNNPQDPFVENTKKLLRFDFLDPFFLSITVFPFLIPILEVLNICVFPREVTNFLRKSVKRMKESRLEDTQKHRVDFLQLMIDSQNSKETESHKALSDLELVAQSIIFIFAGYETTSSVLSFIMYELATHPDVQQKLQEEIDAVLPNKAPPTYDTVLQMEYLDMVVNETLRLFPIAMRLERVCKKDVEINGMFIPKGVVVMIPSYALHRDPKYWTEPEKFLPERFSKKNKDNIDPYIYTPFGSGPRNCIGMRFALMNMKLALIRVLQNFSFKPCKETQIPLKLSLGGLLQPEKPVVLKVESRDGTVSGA

In the case of `Cc1nc(C(=O)N2CC3(CC3)C[C@H]2CNc2ncc(Cl)cn2)c(-c2ccccc2)s1`, the pKb [1] is reported as 6.8 and the pKb [2] is reported as 6.8.

`Cc1nc(C(=O)N2CC3(CC3)C[C@H]2CNc2ccc(Cl)cn2)c(-c2ccccc2)s1` showed a pKb [1] of 8.3 and a pKb [2] of 7.1.

In the case of `Cc1cnn(-c2ccc(C)nc2C(=O)N2CC3(CC3)C[C@H]2CNc2ccc(C(F)(F)F)cn2)c1`, the pKb [1] is reported as 8.9, the inhibition at 3 µM (CYP3A4 [3]) is reported as under 85% and the inhibition at 3 µM (CYP1A2 [4]) is reported as under 85%. It also gave an inhibition at 3 µM (CYP3A4 [5]) of under 85%, an inhibition at 3 µM (CYP2C9 [6]) of under 85% and a pKb [2] of 8.3. For the same compound, the inhibition at 3 µM (CYP2C19 [7]) was under 85% and the inhibition at 3 µM (CYP2D6 [8]) was under 85%.

`Cc1cc(C(F)(F)F)cc(NC[C@@H]2CC3(CC3)CN2C(=O)c2nc(C)sc2-c2ccccc2)n1` showed an inhibition at 1 µM (CYP2C19 [9]) of under 69%, an inhibition at 1 µM (CYP3A4 [10]) of under 69% and a pKb [1] of 7.8. It also gave an inhibition at 1 µM (CYP2C9 [11]) of under 69%, an inhibition at 1 µM (CYP1A2 [12]) of under 69% and an inhibition at 1 µM (CYP3A4 [13]) of under 69%. The pKb [2] was 8.6 and the inhibition at 1 µM (CYP2D6 [14]) was under 69%.

`Cc1nc(C(=O)N2CCC3(CC3)C[C@H]2CNc2ccc(C(F)(F)F)cn2)c(-c2ccccc2)s1` showed a pKb [1] of 7.7 and a pKb [2] of under 5.

For `Cc1ccc(-n2nccn2)c(C(=O)N2CC3(CC3)C[C@H]2CNc2cccc(C)n2)c1`, the inhibition at 1 µM (CYP2C19 [9]) was under 34%, the inhibition at 1 µM (CYP3A4 [10]) was under 34% and the pKb [1] was 7.1. It also gave an inhibition at 1 µM (CYP2C9 [11]) of under 34%, an inhibition at 1 µM (CYP1A2 [12]) of under 34% and an inhibition at 1 µM (CYP3A4 [13]) of under 34%. It also gave a pKb [2] of under 5, a Vd [15] of 0.48 L/kg and an inhibition at 1 µM (CYP2D6 [14]) of under 34%. The clearance [16] was 33.1 mL/min/kg and the Kp at 1 h [17] was 0.2.

In the case of `Cc1ccnc(NC[C@@H]2CC3(CC3)CN2C(=O)c2nc(C)sc2-c2ccccc2)n1`, the pKb [1] is reported as 6.1 and the pKb [2] is reported as 7.

With `O=C(c1nc(C(F)(F)F)ccc1-c1ncccn1)N1CC2(CC2)C[C@H]1CNc1ccc(C(F)(F)F)cn1` the pKb [1] was 6.7, the inhibition at 3 µM (CYP3A4 [3]) was under 39% and the inhibition at 3 µM (CYP1A2 [4]) was under 39%. It also gave an inhibition at 3 µM (CYP3A4 [5]) of under 39%, an inhibition at 3 µM (CYP2C9 [6]) of under 39% and a pKb [2] of 5. For the same compound, the inhibition at 3 µM (CYP2C19 [7]) was under 39% and the inhibition at 3 µM (CYP2D6 [8]) was under 39%.

`Cc1ccc(-c2ncccn2)c(C(=O)N2CC3(CC3)C[C@H]2CNc2cc(C#N)ccn2)n1` gave an inhibition at 1 µM (CYP2C19 [9]) of under 17%, an inhibition at 1 µM (CYP3A4 [10]) of under 17% and an inhibition at 1 µM (CYP2C9 [11]) of under 17%. The inhibition at 1 µM (CYP1A2 [12]) was under 17%, the inhibition at 1 µM (CYP3A4 [13]) was under 17% and the inhibition at 1 µM (CYP2D6 [14]) was under 17%.

`Cc1ccc(-c2nccs2)c(C(=O)N2CC3(CC3)C[C@H]2CNc2ccc(C(F)(F)F)cn2)n1` showed a pKb [1] of 8.6, an inhibition at 3 µM (CYP3A4 [3]) of under 89% and an inhibition at 3 µM (CYP1A2 [4]) of under 89%. The inhibition at 3 µM (CYP3A4 [5]) was under 89%, the inhibition at 3 µM (CYP2C9 [6]) was under 89% and the pKb [2] was 8. It also gave an inhibition at 3 µM (CYP2C19 [7]) of under 89% and an inhibition at 3 µM (CYP2D6 [8]) of under 89%.

In the case of `Cc1ccc(-c2ncccn2)c(C(=O)N2CC3(CC3)C[C@H]2CNc2ccc(C(F)(F)F)cn2)c1`, the pKb [1] is reported as 8.7 and the pKb [2] is reported as 6.6.

In the case of `Cc1cccc(NC[C@@H]2CC3(CC3)CN2C(=O)c2nc(C)sc2-c2ccccc2)n1`, the pKb [1] is reported as 7.3 and the pKb [2] is reported as 7.6.

In the case of `Cc1ccc(-n2nccn2)c(C(=O)N2CCC3(CC3)C[C@H]2CNc2cccc(C)n2)c1`, the pKb [1] is reported as 8.2 and the pKb [2] is reported as under 5.
